Data published in patent US11028051B2, “Tetrahydroquinoline-based bromodomain inhibitors” (St. Jude Children's Research Hospital, priority 2016, dated 2021).
Where two headings read alike, the source gives them in different places.

Columns and labels:
[1] = tested on: NALM-16; assay: anti-proliferative activity; assay type: cell-based; conditions: NALM16; Table 5
Experimental: (§1) After 7 days of treatment, an equal volume of CellTiter-Glo reagent (G7572, Promega) was added and the luminescence signal was measured using an automated Envision plate reader (Perkin-Elmer). Luminescence data were normalized by log10 transformation prior to calculating the percent inhibition using the following equation:
(§2) 100*(negative control mean −compound value)/(negative control mean −positive control mean).

[2] = tested on: SEM cells; assay: anti-proliferative activity; assay type: cell-based; conditions: Table 5
Experimental: as §1, §2

[3] = tested on: Loucy; assay: anti-proliferative activity; assay type: cell-based; conditions: Table 5
Experimental: as §1, §2

[4] = tested on: MV-4-11; assay: anti-proliferative activity; assay type: cell-based; conditions: Homo sapiens, MV4-11; Table 7
Experimental: as §1, §2

[5] = tested on: HDMB03 cells; assay: cell viability, CellTiter-Glo; assay type: cell-based, human; conditions: Homo sapiens, read-out: EC50 (μM) HDMB03
Outline: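 Medulloblastoma cells grown as neurospheres in supplemented neurobasal medium and treated for 7 days; viability read by CellTiter-Glo luminescence. Log10-transformed signal normalized to negative and positive controls; median percent inhibition of triplicates fitted with a four-parameter log-logistic model.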

[6] = tested on: neural crest tumor cell lines; assay: activity versus neural crest tumor cell lines; assay type: cell-based; conditions: several neural crest tumor cell lines; read-out: IC50 ranges
[7] = target: BRD3(1) (Homo sapiens (Human), UniProt Q15059); assay: BROMOscan KD determination; assay type: binding; conditions: Table 10
Chain of BRD3(1) (Q15059 34-140): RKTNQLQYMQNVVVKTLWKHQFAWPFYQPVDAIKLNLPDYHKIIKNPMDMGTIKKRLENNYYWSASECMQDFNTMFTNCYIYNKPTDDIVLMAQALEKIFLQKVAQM
Source text: (§3) DiscoverX® can screen compounds against all ˜42 bromodomains (a service called BROMOscan) and perform follow-up KD determination. This service is considered the industrial standard for bromodomain inhibitor comparisons.

[8] = target: BRD4(1) (Homo sapiens (Human), UniProt O60885); assay: BROMOscan KD determination; assay type: binding; conditions: Table 10
Source text: as §3

[9] = target: BRD3(2) (Homo sapiens (Human), UniProt Q15059); assay: BROMOscan KD determination; assay type: binding
Chain of BRD3(2) (Q15059 306-415): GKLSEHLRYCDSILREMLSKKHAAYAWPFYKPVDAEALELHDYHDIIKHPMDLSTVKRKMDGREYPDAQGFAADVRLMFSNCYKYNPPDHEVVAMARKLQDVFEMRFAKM
Source text: as §3

[10] = target: BRD4(2) (Homo sapiens (Human), UniProt O60885); assay: BROMOscan KD determination; assay type: binding
Source text: as §3

[11] = target: T1, BRD2-BD1 (Homo sapiens (Human), UniProt P25440); assay: competitive TR-FRET assay, BET-BD with acetylated peptide ligand; assay type: binding; conditions: read-out: EC50 (μM) BRD2(1)
T1 sequence (P25440 74-180): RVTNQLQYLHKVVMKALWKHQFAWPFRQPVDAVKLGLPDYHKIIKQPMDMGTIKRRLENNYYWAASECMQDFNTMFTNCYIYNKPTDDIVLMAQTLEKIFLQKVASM
Experimental: (§4) Inhibitor potency was determined using a competitive TR-FRET assay as detailed herein, measuring interaction of the respective BET-BD with an acetylated peptide ligand (Table 2).

[12] = target: BRD3-BD1 (Homo sapiens (Human), UniProt Q15059); assay: as above; assay type: binding
Chain of BRD3-BD1 (Q15059 34-140): as the sequence (Q15059 34-140) above
Experimental: as §4

[13] = target: BRD4-BD2 (Homo sapiens (Human), UniProt O60885); assay: as above; assay type: binding
Experimental: as §4

[14] = target: BRDT (Homo sapiens, UniProt Q58F21); assay: as above; assay type: binding
Experimental: as §4

[15] = target: BRD4-BD1 (Homo sapiens (Human), UniProt O60885); assay: as above; assay type: binding; conditions: Table 4; read-out: EC50 (μM) BRD4(1)
Experimental: as §4

[16] = target: T1, BRD2-BD1; assay: surface plasmon resonance analysis of binding; conditions: SPR, BRD2(1) (printed MRD2(1))
Experimental: (§5) a. Surface Plasmon Resonance (Biacore) Analysis of Binding to Brd2-BD1 and Brd2-BD2
(§6) SPR experiments were conducted at 15° C. using a SensiQ Pioneer optical biosensor (SensiQ Technologies). Poly-His tagged BRD2 constructs were immobilized on polycarboxylate-coated gold chips preimmobilized with nitrilotriacetic acid (His-Cap chips; SensiQ Technologies) by capture-coupling, a hybrid method of capture and amine coupling chemistry (Ref. A). The His-Cap chip was preconditioned and charged with Ni^2+ in equilibration buffer (10 mM HEPES pH 7.4, 150 mM NaCl, 50 μM EDTA, 0.005% Tween20) at a flow rate of 10 μL/min. The chip was washed with three 60 s injections of regeneration buffer (10 mM HEPES pH 8.3, 150 mM NaCl, 350 mM EDTA, 0.05% Tween20) and one 60 s injection of equilibration buffer and was charged with a 60 s injection of 500 mM NiCl2 in equilibration buffer, which added ˜55 RU of Ni^2+ per channel. […]
(§7) A series of buffer-only (blank) injections was included throughout the experiment to account for instrumental noise. The data were processed, double-referenced, solvent corrected and analyzed using the software package Qdat (version 2.5.3.5, SensiQ Technologies) (Ref B). The kinetic rate constants were determined by globally fitting the data to a 1:1 interaction model. Equilibrium dissociation constants (KD) were calculated as the quotient kd/ka.

[17] = target: BRD2-BD2 (Homo sapiens (Human), UniProt P25440); assay: surface plasmon resonance analysis of binding; conditions: SPR, BRD2(2)
Chain of BRD2-BD2 (P25440 344-453): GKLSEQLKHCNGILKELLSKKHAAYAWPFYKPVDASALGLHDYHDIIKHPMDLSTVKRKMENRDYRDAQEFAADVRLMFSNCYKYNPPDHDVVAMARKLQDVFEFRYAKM
Experimental: as §5, §6, §7

**Q.** What does the source list for `COC(=O)c1ccc(N[C@@H]2C[C@H](C)N(C(C)=O)c3ccc(-c4cccc(NC(C)=O)c4)cc32)cc1` [compound 4]?
**A.** EC50 [1]: 0.35 µM; EC50 [2]: 0.02 µM; EC50 [3]: 0.39 µM; EC50 [4]: 0.016 µM; EC50 ([5]; HD-MB03, Table 5): 0.31 µM; EC50 ([5]; HD-MB03, Table 7): 0.75 µM; EC50 ([5]; HD-MB03, Table 9, cancer cell proliferation inhibition): 0.75 µM; IC50 [6]: 50 to 200 nM; Kd [7]: 0.72 nM; Kd [8]: 27 nM; 3(1)/3(2) ([9]; BROMOscan KD ratio): 1.8; Kd ([9]; BROMOscan, Table 10): 0.39 nM; 4(1)/4(2) ([10]; BROMOscan KD ratio): 64.3; Kd ([10]; BROMOscan, Table 10): 0.42 nM; EC50 ([11]; Table 4): 0.43 µM; EC50 ([11]; Table 6): 1.56 µM; EC50 ([11]; Table 8): 1.56 µM; EC50 ([12]; Table 4, read-out: BRD3(1)): 1.1 µM; EC50 ([12]; Table 6, read-out: EC50 (μM) BRD3(1)): 1.1 µM; EC50 ([12]; Table 8, read-out: BRD3(1)): 1.1 µM; 4(1)/4(2) ([13]; Table 4, ratio of EC50): 20.5; EC50 ([13]; Table 4, read-out: EC50 (μM) BRD4(2)): 0.021 µM; EC50 ([14]; Table 4, read-out: BRDT EC50): 4000 nM; EC50 ([14]; Table 6, head names no target, BRDT by comparison with Table 4, read-out: EC50): 4000 nM; EC50 ([14]; Table 8, head names no target, BRDT by comparison with Table 4, read-out: EC50): 4000 nM; EC50 [15]: 0.43 µM; Kd [16]: 132 nM; Kd [17]: 13 nM
